Measurements as given in ChEMBL document CHEMBL4825774, “Sulfonylamide Compounds as CDK2 Inhibitors for Treating Cancer” (ACS Med Chem Lett, 2021).
pIC50: −log10 of the molar value.

The molecules below were run against Cyclin-dependent kinase 2/cyclin E1 (Homo sapiens, UniProt P24941) (assay: Inhibition of human GST-tagged CDK2/FLAG-Cyclin E1 (unknown origin) expressed in baculovirus expression system incubated for 60 mins by HTRF enzyme activity assay).

pIC50, ≥ 7.30:
CC1(NS(=O)(=O)c2ccc(Nc3ncc4c(n3)N([C@@H]3CCC[C@]3(C)O)C(=O)C43CC3)cc2)CNC1, CNS(=O)(=O)c1ccc(Nc2ncc3c(n2)N(c2cc4c(cc2Cl)CNCC4)C(=O)C32CC2)cc1, CNS(=O)(=O)c1ccc(Nc2ncc3c(n2)N([C@@H]2CCC[C@H]2C)C(=O)C32CC2)cc1, CC1CCCC1N1C(=O)C2(CC2)c2cnc(Nc3ccc(S(=O)(=O)N[C@@H]4CCCN(C)C4)cc3)nc21 (stereo partly specified), CC[C@@H](N1C(=O)C2(CC2)c2cnc(Nc3ccc(S(=O)(=O)NC)cc3)nc21)C(F)(F)F, CN(C)CCNS(=O)(=O)c1ccc(Nc2ncc3c(n2)N(c2cc(F)ccc2Cl)C(=O)C32CC2)cc1
